Assay results as given in paper PMC6130797 (ACS Omega, 2018).
Where “and” joins values, the source holds several entries; their conditions need not be identical. Equal entries are not always repeated. Where two headings read alike, the source gives them in different places.

Key:
[1] = target: hH1R (Homo sapiens, UniProt P35367); experiment: biochemical; type: binding
[2] = target: T1, gpH2R (Cavia porcellus, UniProt P47747); parameters: species or system guinea pig
Target sequence in this assay (P47747 whole entry): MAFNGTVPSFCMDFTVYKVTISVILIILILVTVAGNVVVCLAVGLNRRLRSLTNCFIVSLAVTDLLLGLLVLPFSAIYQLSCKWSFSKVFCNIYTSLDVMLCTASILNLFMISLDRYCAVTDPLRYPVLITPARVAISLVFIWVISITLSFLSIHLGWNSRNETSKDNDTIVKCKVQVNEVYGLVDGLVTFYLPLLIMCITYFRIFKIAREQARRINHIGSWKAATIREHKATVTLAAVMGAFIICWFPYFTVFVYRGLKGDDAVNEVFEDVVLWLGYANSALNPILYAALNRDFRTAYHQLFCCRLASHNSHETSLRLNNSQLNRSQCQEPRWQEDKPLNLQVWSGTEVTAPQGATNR

[3] = target: T2, hH2R (Homo sapiens, UniProt P25021); type: binding
[4] = target: T3, hH4R (Homo sapiens, UniProt Q9H3N8); experiment: Radioligand competition binding with [3H]histamine, Sf9 cell membranes
[5] = target: gpH1R (Cavia porcellus, UniProt P31389); experiment: Histamine H1 receptor assay on isolated guinea pig ileum
[6] = target: T4, hH3R (Homo sapiens, UniProt Q9Y5N1); experiment: Radioligand competition binding with [3H]Nα-methylhistamine, Sf9 cell membranes
[7] = target: T2, hH2R; experiment: [35S]GTPγS binding assay, Sf9 cell membranes; type: biochemical
[8] = target: T3, hH4R; experiment: [35S]GTPγS binding assay, Sf9 cell membranes; type: biochemical
[9] = target: T4, hH3R; experiment: [35S]GTPγS binding assay, Sf9 cell membranes; type: biochemical
[10] = target: T1, gpH2R; experiment: biochemical; type: biochemical, guinea pig
Target sequence in this assay (P47747 whole entry): as above
Target sequence in this assay (P63092 1-380 isoform P63092-2 partner): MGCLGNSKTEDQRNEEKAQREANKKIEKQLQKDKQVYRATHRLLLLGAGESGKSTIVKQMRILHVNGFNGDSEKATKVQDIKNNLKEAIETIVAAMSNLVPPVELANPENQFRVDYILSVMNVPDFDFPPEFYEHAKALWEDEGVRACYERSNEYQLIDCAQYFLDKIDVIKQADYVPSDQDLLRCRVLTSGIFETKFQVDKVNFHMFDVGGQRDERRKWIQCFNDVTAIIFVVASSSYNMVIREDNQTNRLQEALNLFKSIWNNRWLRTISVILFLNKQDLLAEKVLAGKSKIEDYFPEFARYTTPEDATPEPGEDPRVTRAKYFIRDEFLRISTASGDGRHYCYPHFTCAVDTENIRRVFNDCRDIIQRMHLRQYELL

[11] = target: rH2R (Rattus norvegicus, UniProt P25102); experiment: [35S]GTPγS binding assay, Sf9 cell membranes; type: biochemical
[12] = hH1R pKi, [3H]mepyramine (Kd 4.5 nM, c = 5 nM), mean ± SEM
[13] = hH2R pKi, [3H]tiotidine (Kd […], c = 10 nM), mean ± SEM
[14] = hH3R pKi, [3H]Nα-methylhistamine (Kd 8.6 nM, c = 3 nM), mean ± SEM
[15] = guinea pig right atrium, relative to maximal increase in heart rate induced by histamine (Emax = 1.00)
[16] = maximal response relative to histamine (Emax = 1.00)

rH2R, sequence (P25102 whole entry): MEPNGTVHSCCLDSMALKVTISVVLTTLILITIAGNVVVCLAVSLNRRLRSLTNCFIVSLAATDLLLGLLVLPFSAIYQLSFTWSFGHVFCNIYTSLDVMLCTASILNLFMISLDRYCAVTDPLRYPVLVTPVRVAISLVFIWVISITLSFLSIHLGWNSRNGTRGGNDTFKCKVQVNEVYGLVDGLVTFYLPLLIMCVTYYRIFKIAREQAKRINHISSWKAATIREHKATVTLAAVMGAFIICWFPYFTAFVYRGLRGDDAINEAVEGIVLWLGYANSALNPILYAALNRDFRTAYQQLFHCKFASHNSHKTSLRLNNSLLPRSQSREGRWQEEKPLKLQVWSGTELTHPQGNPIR
rH2R, sequence (P63092 1-380 isoform P63092-2 partner): as the sequence (P63092 1-380 isoform P63092-2 partner) above
T3 sequence (Q9H3N8 whole entry): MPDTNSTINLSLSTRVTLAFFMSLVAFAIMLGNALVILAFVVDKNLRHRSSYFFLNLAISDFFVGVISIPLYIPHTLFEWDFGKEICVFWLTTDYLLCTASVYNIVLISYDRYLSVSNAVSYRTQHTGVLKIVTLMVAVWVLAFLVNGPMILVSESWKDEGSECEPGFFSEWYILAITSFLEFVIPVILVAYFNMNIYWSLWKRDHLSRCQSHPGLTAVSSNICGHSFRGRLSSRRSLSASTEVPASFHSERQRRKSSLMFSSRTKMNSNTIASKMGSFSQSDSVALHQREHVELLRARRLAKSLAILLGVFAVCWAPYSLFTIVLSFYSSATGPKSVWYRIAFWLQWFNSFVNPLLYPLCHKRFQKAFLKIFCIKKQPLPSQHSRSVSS
hH1R, sequence (P35367 whole entry): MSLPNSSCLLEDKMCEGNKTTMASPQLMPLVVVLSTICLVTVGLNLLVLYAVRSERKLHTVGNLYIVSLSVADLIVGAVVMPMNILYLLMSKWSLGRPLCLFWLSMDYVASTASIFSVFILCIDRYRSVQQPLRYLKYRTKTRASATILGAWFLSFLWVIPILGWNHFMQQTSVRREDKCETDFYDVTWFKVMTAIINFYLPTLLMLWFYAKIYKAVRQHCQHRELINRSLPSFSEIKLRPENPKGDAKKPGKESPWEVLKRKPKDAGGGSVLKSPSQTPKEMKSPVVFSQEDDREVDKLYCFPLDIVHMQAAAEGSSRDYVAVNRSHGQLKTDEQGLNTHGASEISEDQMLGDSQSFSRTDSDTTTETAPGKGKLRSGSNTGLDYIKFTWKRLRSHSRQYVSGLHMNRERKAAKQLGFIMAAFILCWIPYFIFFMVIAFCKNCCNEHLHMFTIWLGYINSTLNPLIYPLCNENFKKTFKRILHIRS
T4 sequence (Q9Y5N1 whole entry): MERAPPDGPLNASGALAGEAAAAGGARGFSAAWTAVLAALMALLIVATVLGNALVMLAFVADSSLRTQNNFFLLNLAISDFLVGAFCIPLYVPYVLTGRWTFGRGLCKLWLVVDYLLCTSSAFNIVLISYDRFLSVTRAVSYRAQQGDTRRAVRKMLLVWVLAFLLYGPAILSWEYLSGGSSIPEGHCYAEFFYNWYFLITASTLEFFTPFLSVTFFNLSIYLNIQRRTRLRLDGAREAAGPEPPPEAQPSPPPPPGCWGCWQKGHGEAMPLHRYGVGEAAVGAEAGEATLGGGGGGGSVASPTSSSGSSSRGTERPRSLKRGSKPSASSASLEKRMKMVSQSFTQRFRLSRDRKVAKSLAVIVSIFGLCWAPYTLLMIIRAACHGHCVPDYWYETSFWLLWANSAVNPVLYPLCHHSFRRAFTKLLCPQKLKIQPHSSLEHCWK
T2 sequence (P25021 whole entry): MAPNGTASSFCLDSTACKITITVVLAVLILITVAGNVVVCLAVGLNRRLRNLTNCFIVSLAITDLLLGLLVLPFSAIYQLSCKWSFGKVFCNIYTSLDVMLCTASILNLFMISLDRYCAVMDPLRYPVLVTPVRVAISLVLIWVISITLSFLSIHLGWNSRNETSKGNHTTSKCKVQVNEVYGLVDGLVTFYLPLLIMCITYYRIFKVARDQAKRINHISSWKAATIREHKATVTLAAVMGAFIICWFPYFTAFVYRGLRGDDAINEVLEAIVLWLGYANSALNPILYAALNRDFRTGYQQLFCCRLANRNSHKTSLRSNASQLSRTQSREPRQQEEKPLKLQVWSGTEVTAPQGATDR
T2 sequence (P63092 1-380 isoform P63092-2 partner): as the sequence (P63092 1-380 isoform P63092-2 partner) above
gpH1R, sequence (P31389 whole entry): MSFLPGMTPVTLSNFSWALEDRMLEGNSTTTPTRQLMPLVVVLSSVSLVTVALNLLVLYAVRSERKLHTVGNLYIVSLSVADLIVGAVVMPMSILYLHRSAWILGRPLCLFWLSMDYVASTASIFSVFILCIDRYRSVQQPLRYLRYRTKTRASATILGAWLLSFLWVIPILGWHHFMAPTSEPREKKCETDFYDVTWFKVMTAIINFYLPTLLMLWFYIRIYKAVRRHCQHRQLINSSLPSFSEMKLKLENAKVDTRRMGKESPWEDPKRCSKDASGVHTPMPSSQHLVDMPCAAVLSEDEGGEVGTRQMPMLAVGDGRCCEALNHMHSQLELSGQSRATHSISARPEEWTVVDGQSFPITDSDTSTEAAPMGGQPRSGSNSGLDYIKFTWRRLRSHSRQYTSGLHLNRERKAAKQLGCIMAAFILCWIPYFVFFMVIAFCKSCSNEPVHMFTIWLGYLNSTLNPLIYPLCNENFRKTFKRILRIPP

| Structure (SMILES) | EC50 [2] [nM] | gpH2R Emax [2] | Ki [3, 13] [nM] | Ki ([4]; hH4R pKi) [nM] | Kb [5] [nM] | Ki [6, 14] [nM] | Ki ([1]; hH1R pKi) [nM] | other results |
| --- | --- | --- | --- | --- | --- | --- | --- | --- |
| CC(C)CNC(=N)NCCCc1c[nH]cn1 [Compound 132] | 1350 | 0.86 ± 0.08 | 759 | 17.8 | 10200 | 66.1 |  | Ki [1, 12]: > 31600 nM |
| CC(C)(C)NC(=N)NCCCc1c[nH]cn1 [Compound 133] | 15100 | 0.92 ± 0.03 | 2510 | 219 |  | 372 | > 100000 |  |
| CCCCCCCCCCNC(=N)NCCCc1c[nH]cn1 [Compound 137] | 295 | 0.90 ± 0.03 | 141 | 97.7 | 182 | 31.6 | 2000 | gpH1R pA2 ([5]; guinea pig ileum, antagonism of histamine-induced contraction): 6.74 |
| N=C(NCCCCCCCCNC(=N)NCCCc1cnc(N)s1)NCCCc1c[nH]cn1 [Compound 62] | 5.62 | 1.02 ± 0.06 | 53.7 | 107 | 977 | 37.2 | > 1000 | EC50 [7]: 309 nM; hH2R Emax [7]: 0.45 ± 0.04; Kb [8]: 372000 nM; hH4R Emax [8]: 0; Kb [9]: 81.3 nM; hH3R Emax [9]: 0 |
| Cc1nc(N)sc1CCCNC(=N)NCCCCCCCCNC(=N)NCCCc1c[nH]cn1 [Compound 61] | 10.2 | 0.91 ± 0.03 | 117 | 74.1 | 1410 | 32.4 | > 1000 | EC50 [7]: 589 nM; hH2R Emax [7]: 0.54 ± 0.05; Kb [8]: 204000 nM; hH4R Emax [8]: 0; Kb [9]: 66.1 nM; hH3R Emax [9]: 0 |
| c1nc(CCCNC2=NCCCN2)c[nH]1 [Compound 145, N-[3-(1H-imidazol-4-yl)propyl]-1,4,5,6-tetrahydropyrimidin-2-amine] | 1510 |  | 3160 | 38 | 5750 |  | > 10000 | gpH2R Emax [2, 15]: 1.00 ± 0.03; Ki ([6]; hH3R pKi): 186 nM |
| NCCc1c[nH]cn1 [Compound 1, histamine, reference compound] |  |  |  |  |  |  |  | gpH2R Emax [10, 16]: 1.00; gpH2R Emax [2, 15]: 1.00; hH2R Emax [7, 16]: 1.00; EC50 [11]: 1070 nM; rH2R Emax [11, 16]: 1.00; hH4R Emax [8, 16]: 1.00 |
| CCNC(=N)NCCCc1c[nH]cn1 [Compound 128] | 7240 | 0.55 ± 0.07 | 4900 | 13.5 | 8320 | 93.3 |  | Ki [1, 12]: > 31600 nM |
| N=C(NCCCCNC(=N)NCCCc1c[nH]cn1)NCCCc1c[nH]cn1 [Compound 54] | 38 | 0.94 ± 0.01 | 407 | 661 | 1290 | 145 | > 10000 |  |
| N=C(NCCCCCCNC(=N)NCCCc1c[nH]cn1)NCCCc1c[nH]cn1 [Compound 55] | 16.6 | 0.90 ± 0.04 | 151 | 427 | 2040 | 52.5 | > 3160 |  |
| CNCCc1cnc[nH]1 [[^3H]N^α-methylhistamine, reference compound] |  |  |  |  |  |  |  | Kd ([6]; read-out: Kd of radioligand at hH3R, Sf9 membranes): 8.6 nM |
| CCCCCCCCCCCCNC(=N)NCCCn1ccnc1 [Compound 141] |  | 0 | 1260 | 12900 | 372 | 6460 | > 3160 | gpH2R pEC50 [2]: not active |
| N=C(NCCCCCCCCNC(=N)NCCCc1cnc(N)s1)NCCCc1cnc(N)s1 [Compound 59] | 20.4 | 0.94 ± 0.03 | 234 | 52500 | 832 | 11000 | > 10000 | difference in pKi (H2R) over pKi (H1,3,4R) ([3]; hH2R selectivity from radioligand binding): at least 1.5 log units; EC50 [7]: 295 nM; hH2R Emax [7]: 0.40 ± 0.05; Kb [8]: 263000 nM; hH4R Emax [8]: 0; Kb [9]: 89100 nM; hH3R Emax [9]: 0 |
| N=C(NCCCCCCCCCCNC(=N)NCCCc1c[nH]cn1)NCCCc1c[nH]cn1 [Compound 56] | 25.1 | 0.71 ± 0.04 | 33.9 | 20.9 | 229 | 19.1 | 1260 |  |
| N=C(NCCCCCCCCNC(=N)NCCCn1ccnc1)NCCCn1ccnc1 [Compound 60] | 4900 | 0.20 and 0.20 ± 0.02 | 4470 | 33900 | 4270 | 2750 | > 10000 |  |
| N=C(NCCCCCCCCNC(=N)NCCCc1c[nH]cn1)NCCCc1c[nH]cn1 [Compound 5, 1,1′-(Octane-1,8-diyl)bis{3-[3-(1H-imidazol-4-yl)propyl]guanidine}] | 10.5 | 0.91 and 0.91 ± 0.05 | 89.1 | 87.1 | 1700 | 30.2 | 3160 | Ki ([1]; Ki hH1R, bound stated): > 1000 nM; EC50 [10]: 25.1 nM; gpH2R Emax [10]: 0.95 and 0.95 ± 0.05; Ki ([3]; Ki hH2R, bound stated): < 100 nM; Ki ([4]; Ki hH4R, bound stated): < 100 nM; EC50 [7]: 166 nM; hH2R Emax [7]: 0.50 ± 0.03; EC50 [11]: 66.1 nM; rH2R Emax [11]: 0.80 ± 0.01; Kb [8]: 407000 nM; hH4R Emax [8]: 0; Ki ([6]; Ki hH3R, bound stated): < 100 nM; Kb [9]: 135 nM; hH3R Emax [9]: 0 |
| N=C(NCCCNC(=N)NCCCc1c[nH]cn1)NCCCc1c[nH]cn1 [Compound 53] | 49 | 0.96 and 0.96 ± 0.01 | 174 | 200 | 631 | 112 | > 10000 |  |
| CCCCCCCCCCCCNC(=N)NCCCc1sc(N)nc1C [Compound 139] | 269 | 0.60 ± 0.02 | 468 | 5620 | 437 | 2040 | > 3160 | EC50 [7]: 6920 nM; EC50 [8]: 13800 nM; hH4R Emax [8]: –0.97 ± 0.01; quality of action at hH4R ([8]; [35S]GTPγS binding assay): inverse agonistic activity; Kb [9]: 4270 nM; hH3R Emax [9]: 0 |
| CC(C)CCNC(=N)NCCCc1c[nH]cn1 [Compound 135] | 240 | 0.89 ± 0.05 | 794 | 25.1 | 7240 | 115 | > 10000 |  |
| CCCCCCCCCCCCNC(=N)NCCCc1cnc(N)s1 [Compound 140] | 562 | 0.70 ± 0.01 | 269 | 11200 | 372 | 14100 | > 3160 |  |
| CCCNC(=N)NCCCc1c[nH]cn1 [Compound 129, 1-[3-(1H-Imidazol-4-yl)propyl]-3-propylguanidine] |  | 0.83 ± 0.03 | 3020 |  |  |  |  | Ki ([1]; Ki hH1R, bound stated): > 1000 nM; Ki [1, 12]: > 31600 nM; Ki ([3]; Ki hH2R, bound stated): > 1000 nM; Ki ([4]; Ki hH4R, bound stated): < 100 nM; Ki ([6]; Ki hH3R, bound stated): < 100 nM |
| CC(C)NC(=N)NCCCc1c[nH]cn1 [Compound 130] | 1550 | 0.87 ± 0.04 | 4170 | 38 | 5370 | 91.2 | > 10000 |  |
| CCCCCCCCNC(=N)NCCCc1c[nH]cn1 [Compound 136] | 195 | 1.13 ± 0.07 | 110 | 126 | 794 | 107 | > 3160 | EC50 [7]: 138 nM; hH2R Emax [7]: 0.48 ± 0.02; Kb [8]: 209000 nM; hH4R Emax [8]: 0; EC50 [9]: 28.8 nM; hH3R Emax [9]: –0.53 ± 0.03; quality of action at hH3R ([9]; [35S]GTPγS binding assay): inverse agonistic activity |
| CCCCNC(=N)NCCCc1c[nH]cn1 [Compound 131] | 832 | 0.86 ± 0.04 | 776 | 9.12 | 4070 | 61.7 | > 10000 |  |
| CCCCCCCCCCCCNC(=N)NCCCc1c[nH]cn1 [Compound 138] | 234 | 0.91 and 0.91 ± 0.03 | 603 | 12.6 | 195 | 29.5 | 2950 |  |
| CCCCCNC(=N)NCCCc1c[nH]cn1 [Compound 134] | 363 | 0.90 ± 0.02 | 933 | 6.76 | 4470 | 91.2 | > 10000 |  |
| CNC(=N)NCCCc1c[nH]cn1 [Compound 127] | 7940 | 0.58 ± 0.07 | 2750 | 26.3 | 58900 | 155 |  | Ki [1, 12]: > 31600 nM |
